Measurements published in ChEMBL document CHEMBL1158968, “Novel cytotoxic principles of Formosan Ganoderma lucidum” (1991).
≈ marks a conversion by molar mass, not a printed value.

Tests used:
[1] = Cytotoxicity against human PLC/PRF/5 cells after 4 days; format: functional; details: PLC-PRF-5, 96 h, read-out: ED50 (the source's name)
KB = assay: Cytotoxicity against human KB cells after 4 days; format: functional; details: 96 h, read-out: ED50 (the source's name)

C/C(C=O)=C\CC[C@@H](C)[C@H]1CC[C@@]2(C)C3=C(C(=O)C[C@]12C)[C@@]1(C)CC[C@H](O)C(C)(C)[C@@H]1CC3 [GANODERIC ALDEHYDE A]
EC50 [1]: 2.54 µg/mL (≈ 5.59 µM) | EC50 (KB): 1.25 µg/mL (≈ 2.75 µM)

CC(C)[C@@H](C)/C=C/[C@@H](C)[C@H]1CC[C@@H]2[C@]1(C)CC[C@H]1[C@]23C=C[C@]2(C[C@@H](O)CC[C@]12C)OO3 [ERGOSTEROL PEROXIDE]
EC50 [1]: 11 µg/mL (≈ 25.6 µM) | EC50 (KB): 9.79 µg/mL (≈ 22.8 µM)

C/C(=C\CC[C@@H](C)[C@H]1CC[C@@]2(C)C3=C(C(=O)C[C@]12C)[C@@]1(C)CC[C@H](O)C(C)(C)[C@@H]1CC3)CO [2H-GANODERIC ALDEHYDE A]
EC50 [1]: 10.7 µg/mL (≈ 23.5 µM) | EC50 (KB): 8.27 µg/mL (≈ 18.1 µM)
